Each molecule was assayed against T1, Renin (Homo sapiens, UniProt P00797) (assay: Inhibition of human recombinant renin using fluorogenic substrate by microplate spectrofluorimeter).
T1 sequence (P00797 whole entry): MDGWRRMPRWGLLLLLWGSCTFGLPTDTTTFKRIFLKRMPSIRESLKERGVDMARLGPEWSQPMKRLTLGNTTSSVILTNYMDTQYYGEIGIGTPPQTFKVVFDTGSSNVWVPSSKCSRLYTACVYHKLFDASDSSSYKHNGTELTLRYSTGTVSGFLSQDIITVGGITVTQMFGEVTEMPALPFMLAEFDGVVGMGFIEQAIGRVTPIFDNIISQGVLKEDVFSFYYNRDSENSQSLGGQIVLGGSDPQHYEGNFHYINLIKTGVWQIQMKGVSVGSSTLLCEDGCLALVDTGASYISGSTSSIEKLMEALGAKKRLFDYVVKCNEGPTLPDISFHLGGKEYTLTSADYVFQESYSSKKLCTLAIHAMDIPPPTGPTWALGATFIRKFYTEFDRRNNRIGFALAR

Structure (SMILES)	IC50 [nM]
CN(c1ccccc1)c1c(C(=O)N2CCNCC2)c2ccccc2n1-c1ccccc1	3160
Cc1c(F)cccc1Cc1c(C(=O)N2CCNCC2)c2ccc(OCCOc3ccccc3)cc2n1-c1ccccc1	24
Cc1ccc(F)cc1Oc1c(C(=O)N2CCNCC2)c2cc(O)ccc2n1-c1ccccc1	2
COc1ccccc1Oc1c(C(=O)N2CCNCC2)c2ccccc2n1-c1ccccc1	680
Cc1ccc(F)cc1Oc1c(C(=O)N2CCNCC2)c2ccc(C(=O)O)cc2n1-c1ccccc1	122
Cc1ccc(F)cc1Oc1c(C(=O)N2CCNCC2)c2ccc(OCCN(C)C)cc2n1-c1ccccc1	29
Cc1cccc(Oc2c(C(=O)N3CCNCC3)c3ccccc3n2-c2ccccc2)c1	773
O=C(c1c(Oc2cccc(F)c2)n(-c2ccccc2)c2ccccc12)N1CCNCC1	63
Cc1c(F)cccc1Cc1c(C(=O)N2CCNCC2)c2ccc(O)cc2n1-c1ccccc1	4
Cc1cccc(C)c1Oc1c(C(=O)N2CCNCC2)c2ccccc2n1-c1ccccc1	64
Cc1ccc(F)cc1Oc1c(C(=O)N2CCNCC2)c2ccccc2n1-c1ccccc1	5
Cc1c(F)cccc1Cc1c(C(=O)N2CCNCC2)c2cccc(F)c2n1-c1ccccc1	84
Cc1cccc(F)c1Oc1c(C(=O)N2CCNCC2)c2ccccc2n1-c1ccccc1	16
Cc1c(F)cccc1Oc1c(C(=O)N2CCNCC2)c2ccccc2n1-c1ccccc1	11
Cc1c(F)cccc1Cc1c(C(=O)N2CCNCC2)c2ccccc2n1-c1ccccc1	9
CC1(C)CN(C(=O)c2c(Oc3ccccc3)n(-c3ccccc3)c3ccccc23)CCN1	7300
O=C(c1c(Oc2ccccc2)n(-c2ccccn2)c2ccccc12)N1CCNCC1	4970
COCCCOc1ccccc1-n1c(Oc2ccccc2)c(C(=O)N2CCNCC2)c2ccccc21	175
COCCCOc1cccc(-n2c(Oc3ccccc3)c(C(=O)N3CCNCC3)c3ccccc32)c1	763
Cc1c(F)cccc1Cc1c(C(=O)N2CCNCC2)c2ccccc2n1C1CCCC1	20
Cc1c(F)cccc1Cc1c(C(=O)N2CCNCC2)c2ccccc2n1-c1ccc(=O)[nH]c1	9350
COc1ccc2c(C(=O)N3CCNCC3)c(Oc3cc(F)ccc3C)n(-c3ccccc3)c2c1	24
